Assay results reported in patent publication US10307413B2, “Tetrahydro- and dihydro-isoquinoline PRMT5 inhibitors and uses thereof” (Epizyme, Inc., priority 2013, dated 2019).
Like-named read-outs stand apart in the source and are kept apart here.

Assays:
[1] = biological target: PRMT5/MEP50 (Homo sapiens (Human), UniProt O14744); experiment: PRMT5 Biochemical Assay (PRMT5/MEP50 enzyme assay on peptide substrate, 3H-SAM Flashplate)
In short: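 Radiometric methylation of a biotin-tagged H4(1-15) peptide by human PRMT5/MEP50 from baculovirus/Sf9, with ³H-SAM incorporation read on streptavidin Flashplates. Buffer: Bicine pH 7.6, TCEP, BSG, Tween20; compound preincubated 30 min at 25 °C; stopped with 600 µM final unlabeled SAM. DMSO and SAH controls; IC50 from fitted % inhibition.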

[2] = system: Z-138 cell line; experiment: Z-138 Proliferation Assay (Cell Titer Glo, 5 days); assay type: cell-based; settings: Homo sapiens, 120 h, Z-138 cells, 5 days, read-out: Proliferation EC50
In short: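 Viability via CellTiter-Glo luminescence (ATP) after 5-day incubation at 37 °C, 5% CO2. Compounds tested in triplicate, nine 3-fold steps, highest final concentration 20 μM in 0.2% DMSO; 50% inhibitory concentration by 4-parameter fit of normalized curves.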

[3] = system: symmetric di-methyl arginine in Z-138 cells; experiment: Z-138 Methylation Assay (In Cell Western for symmetric di-methyl arginine and DNA content); assay type: cell-based; settings: Homo sapiens, read-out: ICW EC50
In short: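 In-cell western: symmetric di-methyl arginine signal ratioed to DRAQ5 DNA content after 96 h compound exposure of Z-138 cells seeded at 50,000 cells/mL.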

PRMT5/MEP50, sequence (O14744 other isoform, or with tags, fused parts or gaps): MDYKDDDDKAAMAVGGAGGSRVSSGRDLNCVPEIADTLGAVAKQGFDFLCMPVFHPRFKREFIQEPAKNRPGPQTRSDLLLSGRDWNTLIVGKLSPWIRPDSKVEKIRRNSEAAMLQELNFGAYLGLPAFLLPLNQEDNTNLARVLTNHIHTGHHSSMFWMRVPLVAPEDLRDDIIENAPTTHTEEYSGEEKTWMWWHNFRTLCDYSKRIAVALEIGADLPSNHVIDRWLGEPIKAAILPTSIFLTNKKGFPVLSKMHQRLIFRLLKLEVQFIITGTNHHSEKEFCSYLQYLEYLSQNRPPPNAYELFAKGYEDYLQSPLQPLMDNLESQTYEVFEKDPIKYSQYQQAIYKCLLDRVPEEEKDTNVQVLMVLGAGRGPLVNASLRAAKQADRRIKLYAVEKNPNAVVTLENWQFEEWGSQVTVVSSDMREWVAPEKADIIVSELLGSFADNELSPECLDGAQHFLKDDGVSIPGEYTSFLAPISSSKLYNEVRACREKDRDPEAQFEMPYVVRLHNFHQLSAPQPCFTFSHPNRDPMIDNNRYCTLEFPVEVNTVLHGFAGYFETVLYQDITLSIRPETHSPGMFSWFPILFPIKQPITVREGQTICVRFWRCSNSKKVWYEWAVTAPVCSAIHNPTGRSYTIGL
PRMT5/MEP50, sequence (Q9BQA1 other isoform, or with tags, fused parts or gaps partner): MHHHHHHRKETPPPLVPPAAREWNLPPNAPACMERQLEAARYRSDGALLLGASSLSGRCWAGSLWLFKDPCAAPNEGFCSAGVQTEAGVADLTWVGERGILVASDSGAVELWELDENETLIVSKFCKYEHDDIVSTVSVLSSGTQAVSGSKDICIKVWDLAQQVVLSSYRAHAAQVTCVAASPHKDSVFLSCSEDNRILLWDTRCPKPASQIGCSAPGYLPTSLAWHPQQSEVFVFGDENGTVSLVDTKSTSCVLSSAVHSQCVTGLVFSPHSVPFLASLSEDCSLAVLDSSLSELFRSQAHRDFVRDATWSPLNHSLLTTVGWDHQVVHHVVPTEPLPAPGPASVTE

| SMILES | IC50 [1] | EC50 [2] | EC50 [3] | IC50 ([1]; PRMT5 biochemical assay) | EC50 ([2]; Cell Titer Glo) | EC50 ([3]; In Cell Western methylation) |
| --- | --- | --- | --- | --- | --- | --- |
| CN1CCN(c2nc(NC3COC3)cc(C(=O)NC[C@H](O)CN3CCc4ccccc4C3)n2)CC1 [Compound 394] | < 100 nM | < 100 nM | < 100 nM | – | – | – |
| O=C(NC[C@H](O)CN1CCc2ccccc2C1)c1cc(NC2COC2)nc(N2CCOCC2)n1 [Compound 395] | < 100 nM | < 100 nM | < 100 nM | – | – | – |
| CCNCCCOc1ccc(C(=O)NC[C@H](O)CN2CCc3ccccc3C2)cc1 [Compound 396] | < 100 nM | 1000 to 10000 nM | < 100 nM | – | – | – |
| CC(C)N1CCN(c2cc(C(=O)NC[C@H](O)CN3CCc4ccccc4C3)cc(NC3CCC3)n2)CC1 [Compound 397] | < 100 nM | < 100 nM | < 100 nM | – | – | – |
| CC(=O)N1CCN(c2cc(C(=O)NC[C@H](O)CN3CCc4ccccc4C3)cc(NC3CCC3)n2)CC1 [Compound 398] | – | – | – | < 100 nM | < 100 nM | < 100 nM |
| Cc1nc(NC2COC2)cc(C(=O)NC[C@H](O)CN2CCc3ccccc3C2)n1 [Compound 399] | – | – | – | < 100 nM | 1000 to 10000 nM | < 100 nM |
| Cc1cnc(NC2CCNC2)cc1C(=O)NC[C@H](O)CN1CCc2ccccc2C1 (stereo partly drawn) [Compound 400] | – | – | – | < 100 nM | > 20000 nM | > 1000 nM |
| Cc1cnc(NC2CCN(C)C2)cc1C(=O)NC[C@H](O)CN1CCc2ccccc2C1 (stereo partly drawn) [Compound 401] | – | – | – | < 100 nM | 1000 to 10000 nM | 101 to 1000 nM |
| Cc1cnc(NC2CCN(CC(F)(F)F)C2)cc1C(=O)NC[C@H](O)CN1CCc2ccccc2C1 (stereo partly drawn) [Compound 402] | – | – | – | < 100 nM | 1000 to 10000 nM | < 100 nM |
| Cc1cnc(NC2CN(C)C2)cc1C(=O)NC[C@H](O)CN1CCc2ccccc2C1 [Compound 403] | – | – | – | < 100 nM | > 20000 nM | > 1000 nM |
| O=C(NC[C@H](O)CN1CCc2ccccc2C1)c1cn2nc(Cl)ccc2n1 [Compound 404] | – | – | – | < 100 nM | 10000 to 50000 nM | 101 to 1000 nM |
| O=C(NC[C@H](O)CN1CCc2ccccc2C1)c1cc(NC2COC2)nc(C(F)(F)F)n1 [Compound 405] | – | – | – | < 100 nM | 101 to 1000 nM | < 100 nM |
| CCC(=O)N1CCC(Nc2cc(C(=O)NC[C@H](O)CN3CCc4ccccc4C3)ncn2)CC1 [Compound 406] | – | – | – | < 100 nM | < 100 nM | < 100 nM |
| CCCC(=O)N1CCC(Nc2cc(C(=O)NC[C@H](O)CN3CCc4ccccc4C3)ncn2)CC1 [Compound 407] | – | – | – | < 100 nM | < 100 nM | < 100 nM |
| CC(C)C(=O)N1CCC(Nc2cc(C(=O)NC[C@H](O)CN3CCc4ccccc4C3)ncn2)CC1 [Compound 408] | – | – | – | < 100 nM | < 100 nM | < 100 nM |
| CC(C)CC(=O)N1CCC(Nc2cc(C(=O)NC[C@H](O)CN3CCc4ccccc4C3)ncn2)CC1 [Compound 409] | – | – | – | < 100 nM | < 100 nM | < 100 nM |
| CC(C)(C)C(=O)N1CCC(Nc2cc(C(=O)NC[C@H](O)CN3CCc4ccccc4C3)ncn2)CC1 [Compound 410] | – | – | – | < 100 nM | < 100 nM | < 100 nM |
| CN1CCCCC1CNc1cc(C(=O)NC[C@H](O)CN2CCc3ccccc3C2)ccn1 (stereo partly drawn) [Compound 411] | – | – | – | < 100 nM | 101 to 1000 nM | < 100 nM |
| CN1CCN(c2cc(C(=O)NC[C@H](O)CN3CCc4ccccc4C3)cc(NC3CCC3)n2)CC1 [Compound 413] | – | – | – | < 100 nM | < 100 nM | < 100 nM |
| O=C(NC[C@H](O)CN1CCc2ccccc2C1)c1cc(NC2COC2)nc(N2CCCCC2)n1 [Compound 414] | – | – | – | < 100 nM | < 100 nM | < 100 nM |
| CCCC(=O)N1CC(Nc2cc(C(=O)NC[C@H](O)CN3CCc4ccccc4C3)ncn2)C1 [Compound 415] | – | – | – | < 100 nM | < 100 nM | < 100 nM |
| CC(C)C(=O)N1CC(Nc2cc(C(=O)NC[C@H](O)CN3CCc4ccccc4C3)ncn2)C1 [Compound 416] | – | – | – | < 100 nM | < 100 nM | < 100 nM |
| CC(C)CC(=O)N1CC(Nc2cc(C(=O)NC[C@H](O)CN3CCc4ccccc4C3)ncn2)C1 [Compound 417] | – | – | – | < 100 nM | < 100 nM | < 100 nM |
| O=C(NC[C@H](O)CN1CCc2ccccc2C1)c1cc(NC2CCN(C(=O)C3CC3)CC2)ncn1 [Compound 418] | – | – | – | < 100 nM | < 100 nM | < 100 nM |
| O=C(NC[C@H](O)CN1CCc2ccccc2C1)c1cc(NC2CCN(C(=O)C3CCC3)CC2)ncn1 [Compound 419] | – | – | – | < 100 nM | < 100 nM | < 100 nM |
| CNCCOc1cc(C(=O)NC[C@H](O)CN2CCc3ccccc3C2)ccn1 [Compound 420] | – | – | – | < 100 nM | 1000 to 10000 nM | < 100 nM |

| SMILES | IC50 [1] | EC50 [2] | EC50 [3] | IC50 ([1]; PRMT5 biochemical assay) | EC50 ([2]; Cell Titer Glo) | EC50 ([3]; In Cell Western methylation) |
| --- | --- | --- | --- | --- | --- | --- |
| O=C(NC[C@H](O)CN1CCc2ccccc2C1)c1ccnc(OCCNCC(F)(F)F)c1 [Compound 421] | – | – | – | < 100 nM | 1000 to 10000 nM | < 100 nM |
| O=C(NC[C@H](O)CN1CCc2ccccc2C1)c1ncnc(NC2COC2)c1F [Compound 422] | – | – | – | < 100 nM | 1000 to 10000 nM | < 100 nM |
| CC(C)N1CC(Nc2cc(C(=O)NC[C@H](O)CN3CCc4ccccc4C3)ncn2)C1 [Compound 423] | – | – | – | < 100 nM | 10000 to 50000 nM | 101 to 1000 nM |
| CC(C)(C)C(=O)N1CC(Nc2cc(C(=O)NC[C@H](O)CN3CCc4ccccc4C3)ncn2)C1 [Compound 424] | – | – | – | < 100 nM | 101 to 1000 nM | < 100 nM |
| O=C(NC[C@H](O)CN1CCc2ccccc2C1)c1cc(NC2CN(C(=O)C3CC3)C2)ncn1 [Compound 425] | – | – | – | < 100 nM | < 100 nM | < 100 nM |
| Nc1cc(C(=O)NC[C@H](O)CN2CCc3ccccc3C2)ncn1 [Compound 429] | – | – | – | 101 to 1000 nM | 10000 to 50000 nM | 101 to 1000 nM |
| CC1(C)CC(Nc2cc(C(=O)NC[C@H](O)CN3CCc4ccccc4C3)ncn2)CC(C)(C)N1 [Compound 430] | – | – | – | < 100 nM | 1000 to 10000 nM | 101 to 1000 nM |
| O=C(NC[C@H](O)CN1CCc2ccccc2C1)c1cc(Nc2cc[nH]n2)ncn1 [Compound 431] | – | – | – | < 100 nM | 1000 to 10000 nM | < 100 nM |
| Cc1cc(Nc2cc(C(=O)NC[C@H](O)CN3CCc4ccccc4C3)ncn2)n[nH]1 [Compound 432] | – | – | – | < 100 nM | 1000 to 10000 nM | < 100 nM |
| Cc1cc(Nc2cc(C(=O)NC[C@H](O)CN3CCc4ccccc4C3)ccn2)n[nH]1 [Compound 433] | – | – | – | < 100 nM | 1000 to 10000 nM | < 100 nM |
| O=C(NC[C@H](O)CN1CCc2ccccc2C1)c1cc(O)nc(NC2CCC2)c1 [Compound 434] | – | – | – | < 100 nM | 101 to 1000 nM | < 100 nM |
| O=C(NC[C@H](O)CN1CCc2ccccc2C1)c1cc(NC2COC2)ccn1 [Compound 435] | – | – | – | < 100 nM | 101 to 1000 nM | < 100 nM |
| O=C(NC[C@H](O)CN1CCc2ccccc2C1)c1cccc(NC2COC2)n1 [Compound 436] | – | – | – | < 100 nM | 1000 to 10000 nM | < 100 nM |
| O=C(NC[C@H](O)CN1CCc2ccccc2C1)c1ncnc(NC2COC2)c1Cl [Compound 437] | – | – | – | < 100 nM | 1000 to 10000 nM | < 100 nM |
| CC(C)CN1CC(Nc2cc(C(=O)NC[C@H](O)CN3CCc4ccccc4C3)ncn2)C1 [Compound 438] | – | – | – | < 100 nM | 1000 to 10000 nM | 101 to 1000 nM |
| O=C(NC[C@H](O)CN1CCc2ccccc2C1)c1cc(OC2CNC2)ncn1 [Compound 439] | – | – | – | < 100 nM | 10000 to 50000 nM | 101 to 1000 nM |
| CC(=O)N[C@H]1C[C@H](Nc2cc(C(=O)NC[C@H](O)CN3CCc4ccccc4C3)ncn2)C1 [Compound 440] | – | – | – | < 100 nM | 101 to 1000 nM | < 100 nM |
| CC(=O)N1CC(Nc2cc(C(=O)NC[C@H](O)CN3CCc4ccccc4C3)nc(N3CCCCC3)n2)C1 [Compound 441] | – | – | – | < 100 nM | < 100 nM | < 100 nM |
| CC(=O)N1CC(Nc2cc(C(=O)NC[C@H](O)CN3CCc4ccccc4C3)nc(N3CCN(C)CC3)n2)C1 [Compound 442] | – | – | – | < 100 nM | 101 to 1000 nM | < 100 nM |
| CC(=O)N1CC(Nc2cc(C(=O)NC[C@H](O)CN3CCc4ccccc4C3)nc(N3CCOCC3)n2)C1 [Compound 443] | – | – | – | < 100 nM | < 100 nM | < 100 nM |
| CC(=O)N1CC(Nc2cncc(C(=O)NC[C@H](O)CN3CCc4ccccc4C3)c2)C1 [Compound 444] | – | – | – | < 100 nM | 101 to 1000 nM | < 100 nM |
| C[C@H](N1CC(Nc2cc(C(=O)NC[C@H](O)CN3CCc4ccccc4C3)ncn2)C1)C(F)(F)F [Compound 445] | – | – | – | < 100 nM | 1000 to 10000 nM | < 100 nM |
| C[C@@H](N1CC(Nc2cc(C(=O)NC[C@H](O)CN3CCc4ccccc4C3)ncn2)C1)C(F)(F)F [Compound 446] | – | – | – | < 100 nM | 1000 to 10000 nM | < 100 nM |
| O=C(NC[C@H](O)CN1CCc2ccccc2C1)c1cc(NC2CNC2)nc(N2CCOCC2)n1 [Compound 447] | – | – | – | < 100 nM | 1000 to 10000 nM | < 100 nM |
| CN(c1cc(C(=O)NC[C@H](O)CN2CCc3ccccc3C2)ncn1)C1COC1 [Compound 448] | – | – | – | < 100 nM | > 20000 nM | > 1000 nM |
